# Measured values reported in ChEMBL document CHEMBL5604063, “ASAP - DENV-2 NS2B-NS3 protease fluorescence dose response” (2024).
# Where “and” joins values, the source holds several entries; their conditions need not be identical. Identical values can stand only once.
# Molecular target: Genome polyprotein (dengue virus type 2, UniProt P29990)
# Format: functional, Thailand/16681/1984
# Sequence of Genome polyprotein (P29990 1346-1475 limits assumed): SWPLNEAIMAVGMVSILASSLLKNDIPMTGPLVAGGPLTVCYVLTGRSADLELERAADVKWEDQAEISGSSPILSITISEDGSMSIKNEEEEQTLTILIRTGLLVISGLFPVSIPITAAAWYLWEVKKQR
# Sequence of Genome polyprotein (P29990 1476-2093 limits assumed): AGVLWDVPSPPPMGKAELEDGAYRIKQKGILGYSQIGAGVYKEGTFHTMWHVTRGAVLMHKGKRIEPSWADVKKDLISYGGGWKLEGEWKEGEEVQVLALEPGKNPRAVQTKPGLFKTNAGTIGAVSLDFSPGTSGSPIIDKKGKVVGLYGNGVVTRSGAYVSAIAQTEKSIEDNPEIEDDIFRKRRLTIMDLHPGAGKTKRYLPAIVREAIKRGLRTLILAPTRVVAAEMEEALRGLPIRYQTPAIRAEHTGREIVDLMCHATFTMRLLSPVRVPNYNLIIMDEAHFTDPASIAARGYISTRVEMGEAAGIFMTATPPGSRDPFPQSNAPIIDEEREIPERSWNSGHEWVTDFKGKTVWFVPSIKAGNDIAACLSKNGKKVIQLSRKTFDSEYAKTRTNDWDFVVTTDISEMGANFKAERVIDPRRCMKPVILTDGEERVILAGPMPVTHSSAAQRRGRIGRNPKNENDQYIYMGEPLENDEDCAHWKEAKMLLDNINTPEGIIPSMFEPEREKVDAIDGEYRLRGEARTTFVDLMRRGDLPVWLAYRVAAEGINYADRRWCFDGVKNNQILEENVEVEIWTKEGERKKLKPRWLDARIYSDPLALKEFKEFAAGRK
row,Structure (SMILES),IC50
1,O=C1c2c(O)ccc([N+](=O)[O-])c2C(=O)c2c([N+](=O)[O-])ccc(O)c21,12.7 µM and > 99.5 µM
2,O=C(C(=O)N1CCOCC1)c1c[nH]c2ccccc12,> 99.5 µM
3,COc1ccc(S(=O)(=O)n2nc(OC(=O)c3cccc(-c4ccccc4Cl)c3)cc2N)cc1,> 99.5 µM
4,CCCCCC(=O)N[C@H](C(=O)NCc1cccc(CN)c1)c1ccc(OCc2ccccc2)cc1,84.6 µM
5,CCCC[C@H](NC(C)=O)C(=O)N[C@H](C(=O)NCc1ccc(C(N)=O)cc1)c1ccc(OCc2ccccc2)cc1,> 99.5 µM
6,NC(=O)c1cccc(NC(=O)[C@@H](NC(=O)c2ccc(Oc3ccc(C(F)(F)F)cc3)cc2)c2ccc(OCc3ccccc3)cc2)c1,> 99.5 µM
7,O=C(Nc1ccc2c(c1)B(O)OC2)c1cccc(OCc2c(Cl)cccc2Cl)c1,> 99.5 µM
8,COc1ccc(S(=O)(=O)Nc2ccc(C(=O)Nc3nc4ccccc4s3)cc2)cc1,> 99.5 µM
9,CNC(=O)c1cc(Cl)ccc1NS(=O)(=O)c1cccc(Oc2ccccc2)c1,> 99.5 µM
10,O=C(N[C@H]1CCNC1=O)c1cc(Cl)ccc1NS(=O)(=O)c1ccc(Oc2ccccc2Cl)cc1,87.3 µM
11,CN(C)c1ccc(/C=C/C(=O)C(=O)N2CCOCC2)cc1,88.8 µM
12,Nc1ccc(C(=O)Nc2nc3ccccc3s2)nc1,> 99.5 µM
13,C[C@@H](NC(=O)c1cc(Cl)ccc1NS(=O)(=O)c1ccc(Oc2ccccc2Cl)cc1)[C@H]1CCCO1,> 99.5 µM
14,O=C(c1cc(Cl)ccc1NS(=O)(=O)c1ccc(Oc2ccccc2Cl)cc1)N1CC[C@H](CO)C1,91.2 µM
15,CNC(=O)c1cc(Cl)ccc1NS(=O)(=O)c1ccc(OC2CCCC2)nc1,> 99.5 µM
16,O=C(N[C@H]1CCOC1)c1cc(Cl)ccc1NS(=O)(=O)c1ccc(Oc2ccccc2Cl)cc1,67.4 µM
17,O=S(=O)(Nc1ccc(Oc2ccccc2Cl)cc1)c1c[nH]c2ccc(Cl)cc12,> 99.5 µM
18,Cc1ccc(CNC(=O)c2cc(Cl)ccc2NS(=O)(=O)c2ccc(Oc3ccccc3Cl)cc2)s1,> 99.5 µM
19,Cc1nnc([C@H](C)n2cc(C3CCNCC3)c(C)n2)o1,> 99.5 µM
20,CC[C@H]1CCN(C(=O)c2cc(Cl)ccc2NS(=O)(=O)c2ccc(Oc3ccccc3Cl)cc2)C1,> 99.5 µM
21,CCCC[C@@H](NC(=O)OC(C)(C)C)C(=O)N[C@@H](C(=O)NCc1ccc(CN)cc1)c1ccc(OCc2ccccc2)cc1,36.4 µM
22,O=C(/C=C/c1ccc(N2CCNCC2)cc1)C(=O)N1CCOCC1,> 99.5 µM
23,CNC(=O)c1cccc(CNc2cc(Cl)cc(C(=O)NC(C)(C)CO)c2)c1,> 99.5 µM
24,CCCC[C@H](N)C(=O)N[C@H](C(=O)NCc1ccc(C(N)=O)cc1)c1ccc(OCc2ccccc2)cc1,> 99.5 µM
25,CCc1ccc(NS(=O)(=O)c2ccc(Oc3ccccc3Cl)cc2)c(C(=O)NC)c1,> 99.5 µM
26,CNC(=O)c1cc(OC)ccc1NS(=O)(=O)c1ccc(Oc2ccccc2Cl)cc1,> 99.5 µM

row,Structure (SMILES),IC50
1,C[C@H]1COCCN1C(=O)c1cc(Cl)ccc1NS(=O)(=O)c1ccc(Oc2ccccc2Cl)cc1,95.6 µM
2,CNC(=O)c1cc(Cl)c(OC)cc1NS(=O)(=O)c1ccc(Oc2ccccc2Cl)cc1,31.9 µM
3,CCCC[C@H](N)C(=O)N[C@@H](C(=O)NCc1ccc(C(N)=O)cc1)c1ccc(OCc2ccccc2)cc1,> 99.5 µM
4,COC[C@@H](C)CNC(=O)c1cc(Cl)ccc1NS(=O)(=O)c1ccc(Oc2ccccc2Cl)cc1,> 99.5 µM
5,CNC(=O)c1cc(C#N)ccc1NS(=O)(=O)c1ccc(Oc2ccccc2Cl)cc1,44.8 µM
6,NC(=O)c1cn(C[C@H]2CCCN2c2ccnc3ccccc23)nn1,> 99.5 µM
7,Nc1ccc(/C=C/C(=O)C(=O)N2CCN(CCc3ccccc3)CC2)cc1,> 99.5 µM
8,CCCC[C@H](NC(C)=O)C(=O)N[C@H](C(=O)NCc1ccc(CN)cc1)c1ccccc1,> 99.5 µM
9,CCn1ccnc(N2CC[C@H](c3cccnc3)C2)c1=O,> 99.5 µM
10,CCn1ccnc(N2CC[C@H](c3ccn[nH]3)C2)c1=O,> 99.5 µM
11,NC(=O)c1ccccc1NS(=O)(=O)c1ccc(Oc2ccccc2Cl)cc1,> 99.5 µM
12,CCCN(C)C(=O)c1cc(Cl)ccc1NS(=O)(=O)c1ccc(Oc2ccccc2Cl)cc1,27.9 µM
13,CCCCCNC(=O)c1cc(Cl)ccc1NS(=O)(=O)c1ccc(Oc2ccccc2Cl)cc1,> 99.5 µM
14,CCn1ccnc(N2C[C@@H](O)[C@H](c3c[nH]c4ccccc34)C2)c1=O,> 99.5 µM
15,O=C(O)c1cccc(NC(=O)c2cccc(OCc3c(Cl)cccc3Cl)c2)c1,> 99.5 µM
16,CNC(=O)c1cccc(CCC(=O)Nc2cc(Cl)cc(C(=O)NC(C)(C)CO)c2)c1,> 99.5 µM
17,N=C(N)NCCc1ccc(OC(=O)Nc2ccccc2)cc1,> 99.5 µM
18,Cc1cc(NS(=O)(=O)c2ccc(Oc3ccccc3Cl)cc2)c(C(=O)NCC(F)(F)F)cc1F,22.1 µM
19,CCCC[C@H](NC(=O)OC(C)(C)C)C(=O)N[C@H](C(=O)NCc1ccc(C(N)=O)cc1)c1ccc(OCc2ccccc2)cc1,> 99.5 µM
20,CCn1ccnc(N2CC[C@@H](C(=O)NC)C2)c1=O,> 99.5 µM
21,N#Cc1cccc(NC(=O)c2cccc(OCc3c(Cl)cccc3Cl)c2)c1,> 99.5 µM
22,O=C(c1cc(Cl)ccc1NS(=O)(=O)c1ccc(Oc2ccccc2Cl)cc1)N1CCCC1,66.2 µM
23,NCc1cccc(NC(=O)[C@@H](NC(=O)OCc2ccccc2)c2ccc(F)cc2F)c1,> 99.5 µM
24,CCn1c(=O)c(N2CC[C@@H](CO)C2)nc2ccccc21,> 99.5 µM
25,CC(C)c1ccc([C@@H](NC(=O)OCc2ccccc2)C(=O)Nc2cccc(CN)c2)cc1,> 99.5 µM
26,CS(=O)(=O)Nc1ccc(C(=O)Nc2nc3ccccc3s2)cc1,> 99.5 µM

row,Structure (SMILES),IC50
1,CNC(=O)c1cc(Br)cnc1NS(=O)(=O)c1ccc(Oc2ccccc2Cl)cc1,71.4 µM
2,CCn1ccnc(N2CCC(c3c[nH]c4ccccc34)CC2)c1=O,> 99.5 µM
3,O=C(NCc1cocn1)c1cc(Cl)ccc1NS(=O)(=O)c1ccc(Oc2ccccc2Cl)cc1,24.7 µM
4,COc1cc(Cc2c(-c3ccc(F)cc3)noc2C)nc(N2CCNCC2)n1,> 99.5 µM
5,C[C@@H](NC(=O)c1cc(Cl)ccc1NS(=O)(=O)c1ccc(Oc2ccccc2Cl)cc1)C1COC1,70.2 µM
6,NCc1cccc(NC(=O)[C@H]2c3ccccc3CCN2C(=O)OCc2ccccc2)c1,> 99.5 µM
7,CC(C)Nc1nc2ccc(C(=O)Nc3nnnn3-c3ccccn3)cc2[nH]1,> 99.5 µM
8,NCc1cccc(NC(=O)[C@@H](NC(=O)OCc2ccccc2)C(C2CCC2)C2CCC2)c1,> 99.5 µM and 98.9 µM
9,CCn1ccnc(N2CC[C@@H](CC(N)=O)C2)c1=O,> 99.5 µM
10,N=C(N)Nc1ccc(NC(=O)Oc2ccccc2)cc1,> 59.8 µM
11,COc1cc(COc2cncc3ccccc23)nc(N2CCNCC2)n1,> 99.5 µM
12,O=S(=O)(Nc1ccc(Cl)cc1)c1ccc(Oc2ccccc2Cl)cc1,> 99.5 µM
13,CCn1ccnc(N2CC[C@H](c3cccc(C#N)c3)C2)c1=O,> 99.5 µM
14,CN(C)Cc1ccc(C(=O)Nc2cc(Cl)cc(C(=O)NC(C)(C)CO)c2)[nH]1,> 99.5 µM
15,CCn1ccnc(N2CC[C@H](c3c[nH]c4ccccc34)C2)c1=O,> 99.5 µM
16,N=C(N)Nc1ccc(OC(=O)Nc2ccccc2)cc1,> 99.5 µM
17,O=C(NCC1CC1)c1cc(Cl)ccc1NS(=O)(=O)c1ccc(Oc2ccccc2Cl)cc1,22 µM
18,NCc1ccc(/C=C/C(=O)C(=O)N2CCOCC2)cc1,> 99.5 µM
19,CCn1ccnc(N2CC[C@H](c3ccc(OC)nc3)C2)c1=O,> 99.5 µM
20,CCn1ccnc(N2CC[C@H](c3ccc(F)cc3)C2)c1=O,> 99.5 µM
21,CCn1ccnc(N2CC[C@H](C3CCOCC3)C2)c1=O,> 99.5 µM
22,N=C(N)NCCc1ccc(NC(=O)Oc2ccccc2)cc1,> 99.5 µM
23,CNC(=O)c1cc(Cl)ccc1NS(=O)(=O)c1ccc(Oc2ccccc2Cl)cc1,33.7 µM
24,NCc1cccc(NC(=O)[C@@H](NC(=O)OCc2ccccc2)c2cc(F)cc(F)c2)c1,> 99.5 µM
25,CCn1ccnc(N2CC[C@H](c3ccncc3)C2)c1=O,> 99.5 µM
26,CC(C)CNC(=O)c1cc(Cl)ccc1NS(=O)(=O)c1ccc(Oc2ccccc2Cl)cc1,13 µM

row,Structure (SMILES),IC50
1,CCCC[C@H](NC(C)=O)C(=O)N[C@H](C(=O)Nc1ccc(C(N)=O)cc1)c1ccc(OCc2ccccc2)cc1,> 99.5 µM
2,CC(C)(CO)NC(=O)c1cc(Cl)cc(NC(=O)c2cc(Cl)ccc2O)c1,> 99.5 µM
3,CS(=O)(=O)c1ccc(N2CCNCC2)cc1NC(=O)c1cccc2ncccc12,> 99.5 µM
4,CCOc1ccc([C@@H](NC(=O)OCc2ccccc2)C(=O)Nc2cccc(CN)c2)cc1,> 99.5 µM
5,O=C(c1cc(Cl)ccc1NS(=O)(=O)c1ccc(Oc2ccccc2Cl)cc1)N1CCC[C@@H]1CO,62.7 µM
6,CCn1ccnc(N2CC[C@H](C#N)C2)c1=O,> 99.5 µM
7,CCn1ccnc(N2CC[C@@H](CO)C2)c1=O,> 99.5 µM
8,NCc1cccc(NC(=O)[C@@H](NC(=O)OCc2ccccc2)c2cccc(F)c2F)c1,> 99.5 µM
9,CN(CCS(N)(=O)=O)C(=O)c1cc(Cl)ccc1NS(=O)(=O)c1ccc(Oc2ccccc2Cl)cc1,84 µM
10,CCn1ccnc(N2CC[C@@H](Cc3ccncc3)C2)c1=O,> 99.5 µM
11,O=C(O)c1cccc(NC(=O)c2ccc3[nH]ccc3c2)c1,> 99.5 µM
12,CCn1ccnc(N2CC[C@@H](CC#N)C2)c1=O,> 99.5 µM
13,CCCC[C@H](NC(C)=O)C(=O)N[C@H](C(=O)NCc1ccc(CN)cc1)c1ccc(OCc2ccccc2)cc1,77.3 µM
14,Cc1cc(-n2nccc2NC(=O)[C@]2(c3ccc(F)cc3)CCCNC2)ncn1,> 99.5 µM
15,N=C(N)NCCc1cccc(B(O)O)c1,> 99.5 µM
16,N=C(N)NCc1ccc(NC(=O)Oc2ccccc2)cc1,> 59.8 µM
17,N=C(N)NCc1ccc(OC(=O)Nc2ccccc2)cc1,> 99.5 µM
18,O=C(NCc1ccccc1)c1cc(O)ccc1NS(=O)(=O)c1ccc(Oc2ccccc2Cl)cc1,86.4 µM
19,CNC(=O)c1cc(Cl)c(F)cc1NS(=O)(=O)c1ccc(Oc2ccccc2Cl)cc1,14.9 µM
20,NCc1cccc(NC(=O)[C@@H](NC(=O)OCc2ccccc2)c2ccc(Cl)cc2)c1,> 99.5 µM
21,CNC(=O)c1cnncc1NS(=O)(=O)c1ccc(Oc2ccccc2Cl)cc1,> 99.5 µM
22,CC[C@H]1CCN(c2nccn(CC)c2=O)C1,> 99.5 µM
23,O=C(O)c1cc(Cl)ccc1NS(=O)(=O)c1ccc(Oc2ccccc2Cl)cc1,13.8 µM
24,CC(C)(CO)NC(=O)c1cc(Cl)cc(NC(=O)c2ccc(O)nc2)c1,> 99.5 µM
25,CCn1ccnc(N2CC[C@H](c3ccc(C#N)cc3)C2)c1=O,> 99.5 µM
26,O=C(Nc1ccc(F)nc1)Oc1ccccc1,> 59.8 µM
